Columns and labels:
[1] = tested on: HRT-18 cell line; experiment: Clonogenic cell survival assay, HRT-18; type: cell-based, human; details: HRT-18, clonogenic cell survival
Protocol: (§1) TAXOL (paclitaxel) is a powerful cytotoxic agent but is very difficult to use because it is almost insoluble in water or blood plasma. For in vivo or in vitro use, it is generally dissolved in dimethyl sulphoxide (DMSO) or in a complex commercial pharmaceutical preparation. […] The TAXOL (paclitaxel) concentration was varied over the range of 1 to 8nM. These carrier solutions were labeled “polymer” series. Similarly, the same range of TAXOL (paclitaxel) solution concentrations was prepared in neat dimethyl sulphoxide as solvent; these carrier solutions were labeled “DMSO” series. Finally, a series of commercially available pharmaceutical preparations was used, which contained TAXOL (paclitaxel) in the concentration range of 1 to 8 nM; these carrier solutions were labeled “commercial” series. […] The four series of solutions were compared for their cytotoxic action by a clonogenic cell survival assay using three human in vitro cell lines, viz., HELA (originally explanted from cancer of the cervix), HRT-18 (originally explanted from […]) and MGHU-1 (originally explanted from a bladder cancer).

[2] = tested on: HELA cell line; experiment: Clonogenic cell survival assay, HELA; type: cell-based, human
Protocol: as §1

[3] = tested on: MGHU-1 cell line; experiment: Clonogenic cell survival assay, MGHU-1; type: cell-based, human; details: MGHU-1, clonogenic cell survival
Protocol: as §1

[4] = tested on: cancer cells (Molt 4)
Protocol: Typically, for a porphyrin sensitizer, the concentration was determined by ultraviolet/visible measurement of absorption at the Soret wavelength near 420 nm.
The cell growth medium was prepared in three varieties. Each variety contained the nutrients required for cell growth. One variety contained neither sensitizer nor polymer, a second contained polymer but no sensitizer and a third contained both polymer and sensitizer.
The resulting solution was adjusted to pH 7.2 by careful addition of aqueous sodium hydroxide solution (5 M) and finally once more filtered through a 0.22 μm filter. The resulting solution was used as the growth medium containing both sensitizer and polymer in the following experiments. A growth medium containing only polymer was prepared as here but omitting the sensitizer, viz, instead of the sensitizer solution (85 mL), an equal volume of distilled water containing the same amount of polymer but no sensitizer was added. […]
For each growth medium, 10 mL of a suspension containing 10^7-10^8 cells/mL were centrifuged and the cells were resuspended in one of the growth media described above (45mL) to give three cell preparations: A, containing sensitizer plus polymer; B, containing neither sensitizer nor polymer; C, containing polymer but no sensitizer. […] Its amount could be determined by visible spectroscopy as described above. […]

Row | Compound | cytotoxic action (in words) [1] | cytotoxic action (in words) [2] | cytotoxic action (in words) [3] | cell growth (cell count) [4]
1 | COc1cc(NS(C)(=O)=O)ccc1Nc1c2ccccc2nc2ccccc12 [amsacrine] | effective | effective | effective | –
2 | C1=Cc2nc1c(-c1ccccc1)c1ccc([nH]1)c(-c1ccccc1)c1nc(c(-c3ccccc3)c3ccc([nH]3)c2-c2ccccc2)C=C1 [sensitizer, 5,10,15,20 tetrakis phenyl porphyrin] | – | – | – | not inhibited
